The values below come from patent US20230416329A1, “A PEPTIDE WITH DISULFIDE BONDS AND INHIBITORY ACTIVITY AGAINST SERINE PROTEASES, DERIVED HYBRID PEPTIDES THEREOF, AND USES THEREOF” (INSTITUTE OF MATERIA MEDICA , CHINESE ACADEMY OF MEDICAL …, priority 2020, published 2023).

The target of one series is chymotrypsin (Bos taurus, UniProt P00766). Description: in vitro. The note with it: isolated enzyme chymotrypsin, pH 7.8, Remaining peak area (%)/chymotrypsin. In a few lines: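 RP-HPLC peak area tracked intact peptide after 37 °C digestion with chymotrypsin (0.05 μg/μL solution, 5 min preincubation). Samples were withdrawn at 1.5-60.0 min and stopped with 10% TFA.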
The target of the next series is DPP-IV (Homo sapiens, UniProt P27487). Description: Tolerance of GLP-1 and its analogues to DPP-IV (RP-HPLC remaining peak area). The series is classed as in vitro ADME. Particulars: peptide 25 μM, DPP-IV 0.5 ng/μL, 37° C.; for Remaining peak area (%)/DPP-IV: 0.0 h; for remaining at 0.5 h, 25 μM / remaining at 2 h, 25 μM / remaining at 4 h, 25 μM / remaining at 8 h, 25 μM / remaining at 12 h, 25 μM: isolated DPP-IV enzyme in buffer, pH 8. The procedure: (§1) Mix by centrifugation at 8000 rpm for 30 seconds.
(2) Arrange a certain volume of 0.005 μg/μL DPP-IV solution in another sterile EP.

A further series deals with NEP24.11 (Homo sapiens, UniProt P08473). Nature of the series: Tolerance of GLP-1 and its analogues to NEP24.11 (RP-HPLC remaining peak area). It counts as in vitro ADME. Particulars: peptide 30 μM, NEP24.11 1.0 ng/μL, 37° C.; for Remaining peak area (%)/NEP24.11: 0.0 h; for remaining at 0.5 h, 30 μM / remaining at 2 h, 30 μM / remaining at 4 h, 30 μM / remaining at 8 h, 30 μM: isolated NEP24.11 enzyme in buffer; for remaining at 0.5 h, 30 μM: pH 7.4, 0.5 h; for remaining at 2 h, 30 μM: pH 7.4, 2.0 h; for remaining at 4 h, 30 μM: pH 7.4, 4.0 h; for remaining at 8 h, 30 μM: pH 7.4, 8.0 h, read-out: Remaining peak area (%)/NEP24.11. The procedure: as §1
Arrange a certain volume of 0.04 μg/μL NEP24.11 enzyme solution in another sterile EP.

For a further series, the target named is T1, trypsin (Bos taurus, UniProt P00760).
T1 sequence (P00760 24-246): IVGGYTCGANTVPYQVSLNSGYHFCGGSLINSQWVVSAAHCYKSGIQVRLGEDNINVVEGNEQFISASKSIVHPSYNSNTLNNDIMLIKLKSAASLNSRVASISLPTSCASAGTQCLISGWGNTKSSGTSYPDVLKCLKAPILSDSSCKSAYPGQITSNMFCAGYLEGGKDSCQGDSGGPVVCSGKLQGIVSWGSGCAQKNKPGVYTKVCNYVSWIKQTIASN
Nature of the series: in vitro. The procedure: FIG. 17. […] At different time point, 25 μL aliquots was taken out, and 10% (v/v) TFA was added to terminate the reaction.
as §1
Arrange a certain volume of 0.05 μg/μL trypsin solution in another sterile EP. Incubate the EP tubes containing peptides and enzymes at 37° C. for 5 min, and separately add 6 μL of trypsin solution to each EP tube containing peptides and mix well. Start timing and extract 25 μL of reaction solution at 1.5, 3.0, 4.5, 6.0 and 9.0 min later, respectively. Add 3.75 μL of 10% TFA to terminate the reaction and mix well by centrifugation at 8000 rpm for 30 seconds.
Arrange a certain volume of 0.05 μg/μL trypsin solution in another sterile EP. Incubate the EP tubes containing peptides and enzymes at 37° C. for 5 min, and add 9 μL of trypsin solution to each EP tube containing peptides and mix well. Start timing and extract 25 μL of reaction solution at 1.5, 3.0, 4.5, 6.0, 9.0, 15.0, 30.0, and 60.0 min later, respectively. Add 3.75 μL of 10% TFA to terminate the reaction and mix well by centrifugation at 8000 rpm for 30 seconds.
Referring to the experimental method in Example 5, in vitro stability of salmon Calcitonin analogs with oral administration activity to the enzymatic hydrolysis by trypsin, chymotrypsin and elastase were performed.
Referring to the experimental method in Example 5, in vitro stability of IL-17A inhibitory peptides towards the enzymatic hydrolysis by trypsin, chymotrypsin and elastase were performed.

Where [1] appears, read: isolated enzyme trypsin, pH 7.8.

NEP24.11, sequence (P08473 whole entry): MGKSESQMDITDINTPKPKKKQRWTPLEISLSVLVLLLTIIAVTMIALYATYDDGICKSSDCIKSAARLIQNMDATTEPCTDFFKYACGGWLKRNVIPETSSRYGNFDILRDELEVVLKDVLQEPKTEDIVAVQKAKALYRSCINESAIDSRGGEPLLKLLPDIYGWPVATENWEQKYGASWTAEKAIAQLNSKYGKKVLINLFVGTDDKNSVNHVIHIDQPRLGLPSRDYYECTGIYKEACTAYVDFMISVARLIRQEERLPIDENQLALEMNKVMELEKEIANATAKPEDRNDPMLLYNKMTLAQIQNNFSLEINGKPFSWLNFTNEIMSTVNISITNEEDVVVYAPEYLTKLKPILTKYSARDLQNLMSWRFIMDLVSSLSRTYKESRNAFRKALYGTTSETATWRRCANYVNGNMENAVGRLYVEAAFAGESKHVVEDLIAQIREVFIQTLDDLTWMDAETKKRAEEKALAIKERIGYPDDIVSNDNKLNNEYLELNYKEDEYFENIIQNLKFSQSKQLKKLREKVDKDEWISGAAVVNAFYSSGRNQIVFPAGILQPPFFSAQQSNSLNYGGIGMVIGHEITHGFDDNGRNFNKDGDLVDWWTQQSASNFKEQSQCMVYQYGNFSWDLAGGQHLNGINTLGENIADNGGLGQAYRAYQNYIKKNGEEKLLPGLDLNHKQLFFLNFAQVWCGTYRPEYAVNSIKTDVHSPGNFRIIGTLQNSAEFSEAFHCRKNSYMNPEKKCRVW
DPP-IV, sequence (P27487 whole entry, species assumed): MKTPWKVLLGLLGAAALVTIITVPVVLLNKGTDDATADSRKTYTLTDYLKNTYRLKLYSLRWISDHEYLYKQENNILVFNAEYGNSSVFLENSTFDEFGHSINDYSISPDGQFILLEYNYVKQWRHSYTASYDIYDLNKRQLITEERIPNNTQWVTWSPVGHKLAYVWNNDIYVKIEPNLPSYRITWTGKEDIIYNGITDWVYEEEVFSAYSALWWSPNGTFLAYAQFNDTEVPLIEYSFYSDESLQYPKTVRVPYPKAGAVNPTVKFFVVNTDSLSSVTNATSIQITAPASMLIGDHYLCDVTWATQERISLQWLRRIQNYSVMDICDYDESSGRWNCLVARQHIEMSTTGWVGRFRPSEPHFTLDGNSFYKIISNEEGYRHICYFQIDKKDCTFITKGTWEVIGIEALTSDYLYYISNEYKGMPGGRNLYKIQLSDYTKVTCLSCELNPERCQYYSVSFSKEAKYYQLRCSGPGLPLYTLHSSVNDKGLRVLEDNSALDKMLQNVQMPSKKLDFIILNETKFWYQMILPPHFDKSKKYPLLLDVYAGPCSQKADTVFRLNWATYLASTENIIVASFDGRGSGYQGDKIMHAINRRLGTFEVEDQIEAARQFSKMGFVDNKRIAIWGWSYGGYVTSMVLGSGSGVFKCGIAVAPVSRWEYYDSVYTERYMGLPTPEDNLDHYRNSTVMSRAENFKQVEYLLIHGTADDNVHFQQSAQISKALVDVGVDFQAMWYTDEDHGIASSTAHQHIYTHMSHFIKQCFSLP

As for `CC[C@H](C)[C@H](NC(=O)[C@H](Cc1ccccc1)NC(=O)[C@H](CCC(=O)O)NC(=O)[C@H](CCCCN)NC(=O)[C@H](C)NC(=O)[C@H](C)NC(=O)[C@H](CCC(N)=O)NC(=O)CNC(=O)[C@H](CCC(=O)O)NC(=O)[C@H](CC(C)C)NC(=O)[C@H](Cc1ccc(O)cc1)NC(=O)[C@H](CO)NC(=O)[C@H](CO)NC(=O)[C@@H](NC(=O)[C@H](CC(=O)O)NC(=O)[C@H](CO)NC(=O)[C@@H](NC(=O)[C@H](Cc1ccccc1)NC(=O)[C@@H](NC(=O)CNC(=O)[C@H](CCC(=O)O)NC(=O)[C@H](C)NC(=O)[C@H](Cc1c[nH]cn1)NC(=O)CNC(=O)CNC(=O)[C@@H](NC(=O)[C@@H]1CCCN1C(=O)[C@@H](NC(=O)CNC(=O)CNC(=O)[C@H](CCCNC(=N)N)NC(=O)[C@H](CO)NC(=O)[C@H](Cc1ccccc1)NC(=O)[C@H](CCCNC(=N)N)NC(=O)[C@H](CCC(N)=O)NC(=O)CNC(=O)CNC(=O)[C@@H]1CSSC[C@H](N)C(=O)N2CCC[C@H]2C(=O)N[C@@H](CCCCN)C(=O)N[C@@H]([C@@H](C)CC)C(=O)N[C@@H](CC(C)C)C(=O)N[C@@H](CCC(N)=O)C(=O)N[C@@H](CCCNC(=N)N)C(=O)N1)[C@@H](C)CC)[C@@H](C)CC)[C@@H](C)O)[C@@H](C)O)C(C)C)C(=O)N[C@@H](C)C(=O)N[C@@H](Cc1c[nH]c2ccccc12)C(=O)N[C@@H](CC(C)C)C(=O)N[C@H](C(=O)N[C@@H](CCCCN)C(=O)NCC(=O)N[C@@H](CCCNC(=N)N)C(=O)NCC(=O)NCC(=O)N[C@@H](CCCCN)C(=O)O)C(C)C` [DNT-GLP-1], on chymotrypsin, the remaining at 0.025 h, 60 μM is 97 ± 5.7%; the remaining at 0.05 h, 60 μM came to 89.8 ± 0.9%; the remaining at 0.075 h, 60 μM amounted to 85.1 ± 4.4%; the remaining at 0.1 h, 60 μM was 84.3 ± 2%. For the same compound, the remaining at 0.15 h, 60 μM at chymotrypsin came out at 78.2 ± 2.1%. At DPP-IV, the “Remaining peak area (%)/DPP-IV” value was 100.0 ± 0.0%; the remaining at 0.5 h, 25 μM was 108 ± 9.3%; the remaining at 2 h, 25 μM came out at 108 ± 1.7%; the remaining at 4 h, 25 μM was determined as 105 ± 2.3%. In addition, at DPP-IV, the remaining at 8 h, 25 μM was determined as 105 ± 1.7% and the remaining at 12 h, 25 μM is 97.4 ± 2.1%. Further, on NEP24.11, the “Remaining peak area (%)/NEP24.11” value is 100.0 ± 0.0%; the remaining at 0.5 h, 30 μM came to 82.2 ± 1.3%; the remaining at 2 h, 30 μM was found to be 79.1 ± 1.7%; the remaining at 4 h, 30 μM is 77.9 ± 4.2%. The remaining at 8 h, 30 μM on NEP24.11 was 67.8 ± 4.7%. The “stability towards trypsin hydrolysis (in words)” value at trypsin was “completely degraded”. Also, on trypsin (setting [1]), the remaining at 0.025 h, 60 μM stood at 68.3 ± 5.9%; the remaining at 0.05 h, 60 μM was 44.9 ± 3.5%; the remaining at 0.075 h, 60 μM was 21.2 ± 1.1%; the remaining at 0.1 h, 60 μM came out at 0%. Also, the remaining at 0.15 h, 60 μM on trypsin (setting [1]) came to 0%.

Turning to `CC[C@H](C)[C@H](NC(=O)[C@H](Cc1ccccc1)NC(=O)[C@H](CCC(=O)O)NC(=O)[C@H](CCCCN)NC(=O)[C@H](C)NC(=O)[C@H](C)NC(=O)[C@H](CCC(N)=O)NC(=O)CNC(=O)[C@H](CCC(=O)O)NC(=O)[C@H](CC(C)C)NC(=O)[C@H](Cc1ccc(O)cc1)NC(=O)[C@H](CO)NC(=O)[C@H](CO)NC(=O)[C@@H](NC(=O)[C@H](CC(=O)O)NC(=O)[C@H](CO)NC(=O)[C@@H](NC(=O)[C@H](Cc1ccccc1)NC(=O)[C@@H](NC(=O)CNC(=O)[C@H](CCC(=O)O)NC(=O)[C@H](C)NC(=O)[C@H](Cc1c[nH]cn1)NC(=O)CNC(=O)CNC(=O)[C@H](CCCNC(=N)N)NC(=O)[C@H](CO)NC(=O)[C@H](Cc1ccccc1)NC(=O)[C@H](CCCNC(=N)N)NC(=O)[C@H](CCC(N)=O)NC(=O)CNC(=O)CNC(=O)[C@@H]1CCCN1C(=O)[C@H](Cc1ccccc1)NC(=O)[C@@H]1CSSC[C@H](NC(=O)[C@H](CCCNC(=N)N)NC(=O)CN)C(=O)N[C@@H]([C@@H](C)O)C(=O)N[C@@H](CCCCN)C(=O)N[C@@H](CO)C(=O)N[C@@H]([C@@H](C)CC)C(=O)N2CCC[C@H]2C(=O)N2CCC[C@H]2C(=O)N[C@@H]([C@@H](C)CC)C(=O)N1)[C@@H](C)O)[C@@H](C)O)C(C)C)C(=O)N[C@@H](C)C(=O)N[C@@H](Cc1c[nH]c2ccccc12)C(=O)N[C@@H](CC(C)C)C(=O)N[C@H](C(=O)N[C@@H](CCCCN)C(=O)NCC(=O)N[C@@H](CCCNC(=N)N)C(=O)NCC(=O)NCC(=O)N[C@@H](CCCCN)C(=O)O)C(C)C` [BT1-N-GLP-1], on chymotrypsin, the remaining at 0.025 h, 60 μM stood at 69 ± 4.4%; the remaining at 0.05 h, 60 μM was determined as 58.1 ± 4.9%; the remaining at 0.075 h, 60 μM worked out at 53.2%; the remaining at 0.1 h, 60 μM came out at 23.1 ± 0.9%. For the same compound, the remaining at 0.15 h, 60 μM at chymotrypsin was 23.5 ± 0.2%. Moreover, at DPP-IV, the “Remaining peak area (%)/DPP-IV” value is listed as 100.0 ± 0.0%; the remaining at 0.5 h, 25 μM turned out to be 88.9 ± 0.8%; the remaining at 2 h, 25 μM stood at 87 ± 2.7%; the remaining at 4 h, 25 μM stood at 85.8 ± 1.8%. At DPP-IV, the remaining at 8 h, 25 μM was 87.3 ± 2% and the remaining at 12 h, 25 μM is 84.8 ± 1.6%. For the same compound, at NEP24.11, the “Remaining peak area (%)/NEP24.11” value is given as 100.0 ± 0.0%; the remaining at 0.5 h, 30 μM worked out at 90.8 ± 7.1%; the remaining at 2 h, 30 μM came out at 78.8 ± 8%; the remaining at 4 h, 30 μM was 77.8 ± 4.3%. On NEP24.11, the remaining at 8 h, 30 μM was 71.7 ± 4.9%. In addition, at trypsin (setting [1]), the remaining at 0.025 h, 60 μM was determined as 90.9 ± 3.6%; the remaining at 0.05 h, 60 μM was 96.4 ± 4.9%; the remaining at 0.075 h, 60 μM was found to be 91.4 ± 3.2%; the remaining at 0.1 h, 60 μM was found to be 93.2 ± 7%. Also, at trypsin (setting [1]), the remaining at 0.15 h, 60 μM was determined as 88.8 ± 4%; the remaining at 0.25 h, 60 μM is 90 ± 4.4%; the remaining at 0.5 h, 60 μM was determined as 91 ± 6.6%; the remaining at 1 h, 60 μM was found to be 88.9 ± 3%.
